# Values joined by “and” are separate entries in the source; they are usually repeats but may differ in a detail not shown here. Equal entries are not always repeated. Where two headings read alike, the source gives them in different places.
# Experiments:
# [1] = Weight of individuals in the maximization test; format: in vivo, guinea pig
# Description: Results by Weight of Individuals
# guinea pig = conditions: for erythema evaluation point, individual animal: group IV sensitized with DNCB; for ave. eval. (average of evaluation point) / positive ratio: positive comparison group IV sensitized with DNCB 0.1 w/v %
# Protocol: Skin-Sensitize Test (Maximization Test)
# This test is carried out by Juridical Foundation “Food and Medicine Safety Center” (Hatano-shi, Kanagawa) based on “Basic view about biological safety test necessary for petition of recognition of production (import) of medical device” (13.02.2003, Consideration of Medicine No. 0213001″ and “Reference materials regarding basic view of biological safety test” (19.03.2003, Examination of medical device No. 36).
# Using methanol extraction of Verte Kimax 7th Sense, biological safety evaluation is obtained. And aiming to compare with Verte 710N, skin-sensitize test (maximization test) is carried out on a guinea pig using methanol extraction of Verte Kimax 7th Sense.
# At the preparation of prescribing subject, methanol extract of Verte Kimax 7th Sense (hereinafter, shortened to 7th Sense-M) or methanol extract of Verte 710N (hereinafter, shortened to 710N-M) is suspended in ethanol by proportion of 1 mL to the extract obtained 1 g of analyte used for extraction, and 100 v/v % 7th Sense-M ethanol suspension and 100 v/v % 710N-M ethanol suspension are obtained. Further, BLANK obtained from methanol alone is poured into same amount of ethanol as used at the preparation of suspension of 7th Sense-M or 710N-M and 100 v/v % blank suspensions are prepared. In first skin-sensitize test, 100 v/v % 7th Sense-M ethanol suspension and 100 v/v % 710N-M ethanol suspension are replaced with same amount of olive oil, and 100 v/v % 7th Sense-M olive oil suspension and 100 v/v % 710N-M olive oil suspension are prepared. In second skin-sensitize test, 100 v/v % 7th Sense-M ethanol suspension and 100 v/v % 710N-M ethanol suspension are replaced with same amount of olive oil, and 100 v/v % 7th Sense-M olive oil suspension and 100 v/v % 710N-M olive oil suspension are prepared. In causing, 100 v/v % 7th Sense-M ethanol suspension and 100 v/v % 710N-M ethanol suspension are prepared by adding ethanol as stepwise. Further, 100 v/v % corresponding volume blank ethanol solution is used as is.
# In first skin-sensitize test (treatment first day) 10 v/v % 7th Sense-M olive oil suspension or 10 v/v % 710N-M olive oil suspension and Freund's complete adjuvant are injected by intradermal injection in upper part of shoulder bone of a guinea pig. At 7 days after treatment, 10 v/v % sodium lauryl sulfate is open spread on region including intradermal injection part, and next day (8 days after treatment) 100 v/v % 7th Sense-M olive oil suspension or 100 v/v % 710N-M olive oil suspension is blockage patched to same region as second skin-sensitize test for 48 hours. In causing (22 days after treatment), 100, 20, 4, 0.8, and 0.16 v/v % ethanol suspension of 7th Sense-M or 710N-M and 100 v/v % corresponding volume BLANK ethanol solution are blockage patched for 24 hours.
# Judgment is done according to judgment standard of Draize method after 24 hours and 48 hours from removal of patches.
# (numbers of positive animal in group/numbers of animal in group)×100
# [2] = causing conc. 0.01 w/v %, judge 24 hrs.
# [3] = causing conc. 0.01 w/v %, judge 48 hrs.
# [4] = causing conc. 0.1 w/v %, judge 24 hrs.
# [5] = causing conc. 0.1 w/v %, judge 48 hrs.
smiles,measurement,setting,value
"O=[N+]([O-])c1ccc(Cl)c([N+](=O)[O-])c1 [DNCB, 1-chloro-2,4-dinitrobenzene]",weight of individual,[1]; 8th day,472 and 420 and 444 and 453 and 440
same,"weight, group average",[1]; 8th day,446
same,weight of individual,[1]; 15th day,521 and 426 and 470 and 496 and 485
same,"weight, group average",[1]; 15th day,480
same,weight of individual,[1]; 22nd day,572 and 485 and 521 and 536 and 529
same,"weight, group average",[1]; 22nd day,529
same,weight of individual,[1]; 25th day,590 and 481 and 533 and 544 and 541
same,"weight, group average",[1]; 25th day,538
same,weight of individual,[1]; first day,430 and 375 and 396 and 416 and 395
same,"weight, group average",[1]; first day,402
same,weight of individual,[1]; starting date of previous test,356 and 333 and 354 and 369 and 344
same,"weight, group average",[1]; starting date of previous test,349
same,"erythema evaluation point, individual animal","guinea pig; causing 0.01 w/v % DNCB, judge time 24 hrs.",3 (4×) and 4
same,"erythema evaluation point, individual animal","guinea pig; causing 0.01 w/v % DNCB, judge time 48 hrs.",3 (3×) and 4 (2×)
same,"erythema evaluation point, individual animal","guinea pig; causing 0.1 w/v % DNCB, judge time 24 hrs.",4 (4×) and 3
same,"erythema evaluation point, individual animal","guinea pig; causing 0.1 w/v % DNCB, judge time 48 hrs.",4
same,ave. eval. (average of evaluation point),guinea pig; [2],3.8
same,positive ratio,guinea pig; [2],100
same,ave. eval. (average of evaluation point),guinea pig; [3],4.0
same,positive ratio,guinea pig; [3],100
same,ave. eval. (average of evaluation point),guinea pig; [4],4.8
same,positive ratio,guinea pig; [4],100
same,ave. eval. (average of evaluation point),guinea pig; [5],5.2
same,positive ratio,guinea pig; [5],100

# From patent US9267021B2 (KOSSAN SDN BHD, priority 2010, dated 2016)
